According to patent US20230094176A1, “COMPOUNDS AND METHODS FOR IMPROVING IMPAIRED ENDOGENOUS FIBRINOLYSIS USING HISTONE DEACETYLASE INHIBITORS” (Cereno Scientific AB, priority 2011, published 2023):

How the values were obtained:
E-selectin = test: Regulation of E-selectin expression in endothelial cells; type: cell-based; settings: endothelial cell gene expression
t-PA mRNA in HUVECs = test: C100: dose giving a 100% increase of t-PA mRNA in HUVEC (24 h); type: cell-based, human
Protocol: HUVECs are treated with different concentrations of first generation hydroxamates (TSA), second generation hydroxamates (Givinostat, Vorinostat, Belinostat, Panobinostat, SB939, PCI24781), benzamides (Mocetinostat, Entinostat) or short chain fatty acids (SCFA, Butyrate, Phenylbutyrate) for 24 h and t-PA mRNA was measured. The doses giving a 100% increase of t-PA mRNA (C100) was determined and compared to the maximum plasma concentration (Cmax) achieved when the maximum tolerated dose (MTD) of each substance is administered to humans, by dividing the C100 with the Cmax. […] In the table below the values for MTD and Cmax are from the following references (mentioned in the same order as in the table): Steele, N. L. et al Cancer Chemother Pharmacol 67(6):1273-9 (2011), Kelly, K. K. et al J Clin Oncol 23:3923-3931 (2005), Furlan, A. et al Mol Med 17(5-6) 353-362 (2011), Fukutomi, A. et al Invest New Drugs 2011 Apr. 12, Yong, W. P. et al Ann Oncol 22(11) 2516-22 (2011), Garcia-Manero, G. et al. Blood 112: 981-989 (2008), Ryan, Q. C. et al J Clin Oncol 23(17): 3912-3922 (2005), Edelman, M. J. et al Cancer Chemother Pharmacol 51: 439-444, http://www.drugs.com/pro/buphenyl.html *Butyrate was administered in the prodrug form tributyrin.

[1] = test system: TNF-a suppressed t-PA mRNA in HUVECs; test: TNF-alpha suppression of t-PA mRNA in HUVEC: anti-inflammatory substances versus Givinostat; type: cell-based, human
Protocol: HUVECs were treated with TNF-alpha (TNF-a) for 1 h and then optimal concentrations of the anti.inflammatory substances acetylsalicylic acid (ASA, 1 mM) and ibuprofen (IBU, 1 mM) was added. Givinostat was also added to the cells for comparison. Cells were harvested and t-PA mRNA levels analysed according to example 1.

[2] = test system: t-PA mRNA in endothelial cells; test: VPA dose-response on t-PA in the absence or presence of high TNF-alpha (10 ng/ml); type: cell-based, human
Protocol: In an attempt to mimic the potentially highly inflamed conditions in the local microenvironment surrounding an atherosclerotic plaque, endothelial cells were exposed to a high concentration (10 ng/ml) of TNF-alpha for 24 hours and then VPA was added for an additional 24 h. Cells were treated and mRNA prepared as described in example 1.

patients with epilepsy = settings: cited from earlier work

Compound | regulation of E-selectin expression (E-selectin) | C100 tPA (t-PA mRNA in HUVECs) [µM] | increase of t-PA ([1]; HUVEC treated with TNF-a) [fold] | effect on TNF-a mediated suppression of t-PA expression ([1]; HUVEC, TNF-a 1 h then substance, ASA 1 mM, IBU 1 mM) | maximum efficacy in inducing t-PA ([2]; TNF-alpha (10 ng/ml) treated cells) | maximum efficacy in inducing t-PA ([2]; control cells (no TNF-alpha)) | lowering of the risk of atherothrombotic events (patients with epilepsy; patients with epilepsy (Olesen et al 2010)) | plasma levels typically obtained during anticonvulsive treatment (patients with epilepsy; patients, anticonvulsive VPA treatment) [µM]
O=C(/C=C/c1cccc(S(=O)(=O)Nc2ccccc2)c1)NO [Belinostat] | almost no effect | 0.2 |  |  |  |  |  | 
Nc1ccccc1NC(=O)c1ccc(CNc2nccc(-c3cccnc3)n2)cc1 [Mocetinostat] | strongly induces expression | 0.1 |  |  |  |  |  | 
CCN(CC)Cc1ccc2cc(COC(=O)Nc3ccc(C(=O)NO)cc3)ccc2c1.Cl [Givinostat] | strongly suppresses expression | 0.05 | 9 | completely reverse |  |  |  | 
O=C(CCCCCCC(=O)Nc1ccccc1)NO [Vorinostat] |  | 0.1 |  |  |  |  |  | 
CCCC(CCC)C(=O)O [VPA, valproic acid] | almost no effect |  |  |  | about 50 fold | about 10 fold | up to 40% | 350 to 850
